Measured values: BigSolDB 2.1

O=c1cc(-c2ccc(O)c(O)c2)oc2cc(O)cc(O)c12
solubility (mole fraction)
Details	298.2 K	303.2 K	308.2 K	313.2 K	318.2 K
in DMSO	0.0515	0.0564	0.0615	0.0665	0.0715
in ethanol	0.00188	0.00209	0.00241	0.00273	0.00308
in ethyl acetate	0.00261	0.00313	0.00368	0.00438	0.00511
in ethylene glycol	0.0013	0.00158	0.0019	0.00229	0.00268
in isopropanol	0.00251	0.00278	0.00316	0.00366	0.00414
in methanol	0.00047	0.000537	0.000638	0.000727	0.000816
in n-butanol	0.00335	0.00369	0.00415	0.00477	0.00536
in propylene glycol	0.00212	0.00249	0.00289	0.00336	0.00389
in sec-butanol	0.0035	0.00381	0.00435	0.00489	0.00553
in transcutol	0.0309	0.0331	0.0354	0.0378	0.0401
in water	1.75e-06	2.24e-06	2.83e-06	3.49e-06	4.17e-06

Details	solubility (mole fraction)
in PEG-400, 298.2 K	0.1
in PEG-400, 303.2 K	0.106
in PEG-400, 308.2 K	0.113
in PEG-400, 313.2 K	0.119
in PEG-400, 318.2 K	0.127
